Test results: article PMC7803973, “Structural basis of malaria parasite phenylalanine tRNA-synthetase inhibition by bicyclic azetidines” (Nature Communications, 2021)

Legend:
HscFRS [1] = target: T1, HscFRS (Homo sapiens, UniProt Q9Y285); assay: Malachite green aminoacylation enzyme inhibition assay; type: biochemical
Protocol: (§1) These were done using malachite green assay as per earlier published reports[1],[6]. Briefly, the reaction was performed for 100 µM ATP, 50 µM L-phenylalanine and 100 nM recombinant PheRS enzymes (Pf, Pv, Hs, Pf mutant (L550V)) in a buffer containing 30 mM HEPES (pH 7.5), 150 mM, NaCl, 30 mM KCl, 50 mM, MgCl2, 1 mM DTT, and 2 U/ml E. coli inorganic pyrophosphatase (NEB) at 37 °C. Enzymatic reactions (50 μl total volume) were performed in clear, flat-bottomed, 96-well plates (Costar 96-well standard microplates). The reaction mixture was incubated for 2 h at 37 °C. The reaction was stopped by adding 12.5 μl of malachite green solution to the reaction mixture and levels of inorganic phosphate (Pi) were detected after incubation of 5 min at room temperature. Absorbance was the measured at 620 nm using a Spectramax M2 (Molecular Devices). Reactions without FRS enzyme were performed as background controls, values of which were subtracted from the reactions with enzyme. BRD1389 was added to our aminoacylation assay reaction buffer in varying concentrations ranging from 0.1 nM to 10,000 nM. The IC50 value for the data is shown for three replicates as the mean ± SD.

PvcFRS = target: T2, PvcFRS (Plasmodium vivax, UniProt A5K9S0); assay: as above; type: biochemical
T2 construct: Full-length PvcFRS was also purified according to the same protocol; vector-encoded tag of pETM11 (own knowledge: N-terminal His6 with TEV site); Ni-NTA purification; made in house; host or cells: E. coli strain B834
Protocol: as §1

PfcFRS = target: T3, PfcFRS (Plasmodium falciparum, UniProt Q8I246); assay: as above; type: biochemical
T3 sequence (Q8I246 1-575): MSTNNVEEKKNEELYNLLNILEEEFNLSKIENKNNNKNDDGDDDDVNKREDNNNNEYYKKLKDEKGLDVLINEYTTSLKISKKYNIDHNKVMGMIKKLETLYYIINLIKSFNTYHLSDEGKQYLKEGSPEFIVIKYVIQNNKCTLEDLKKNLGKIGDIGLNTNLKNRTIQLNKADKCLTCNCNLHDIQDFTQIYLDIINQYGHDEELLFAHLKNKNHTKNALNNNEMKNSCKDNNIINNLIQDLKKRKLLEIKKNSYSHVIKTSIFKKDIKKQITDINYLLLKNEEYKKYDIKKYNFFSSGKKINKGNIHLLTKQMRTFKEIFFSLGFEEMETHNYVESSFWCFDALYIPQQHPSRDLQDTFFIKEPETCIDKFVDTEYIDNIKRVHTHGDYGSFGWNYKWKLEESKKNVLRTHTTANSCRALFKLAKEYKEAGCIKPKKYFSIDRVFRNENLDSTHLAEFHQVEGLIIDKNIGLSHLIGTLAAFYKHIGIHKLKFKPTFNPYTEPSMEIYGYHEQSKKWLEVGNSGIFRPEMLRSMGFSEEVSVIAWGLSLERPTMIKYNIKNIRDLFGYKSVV
T3 sequence (Q8IIW2 1-623 partner): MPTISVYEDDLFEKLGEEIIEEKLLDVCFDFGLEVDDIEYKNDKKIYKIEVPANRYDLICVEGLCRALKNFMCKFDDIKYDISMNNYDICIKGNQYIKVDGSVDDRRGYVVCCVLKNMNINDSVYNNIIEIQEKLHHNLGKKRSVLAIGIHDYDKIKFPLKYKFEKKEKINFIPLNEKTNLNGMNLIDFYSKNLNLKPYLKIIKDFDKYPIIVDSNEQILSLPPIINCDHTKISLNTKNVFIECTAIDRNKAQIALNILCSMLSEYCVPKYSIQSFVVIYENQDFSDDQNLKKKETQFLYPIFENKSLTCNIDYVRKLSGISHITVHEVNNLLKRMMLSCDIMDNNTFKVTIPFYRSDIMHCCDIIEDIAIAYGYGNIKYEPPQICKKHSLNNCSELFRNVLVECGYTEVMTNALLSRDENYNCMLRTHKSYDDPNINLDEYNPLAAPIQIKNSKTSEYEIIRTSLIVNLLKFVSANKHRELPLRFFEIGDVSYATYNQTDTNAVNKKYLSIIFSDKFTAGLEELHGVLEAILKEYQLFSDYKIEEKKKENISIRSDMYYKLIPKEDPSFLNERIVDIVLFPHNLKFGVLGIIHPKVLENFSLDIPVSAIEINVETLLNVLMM
Protocol: as §1

PfcFRS mutant (L550V) = PfcFRS mutant (L550V) (Plasmodium falciparum, UniProt Q8I246, L550V); assay: as above; type: biochemical
Protocol: as §1

HscFRS [2] = target: T1, HscFRS; assay: Surface plasmon resonance binding; settings: Hs; SPR, 1:1 binding model; read-out: Kd (cFRS)
Protocol: These were carried out on a Biacore T200 instrument (GE Healthcare) at 25 °C. The binding experiments were performed in buffer 10 mM phosphate buffered saline (PBS), pH 7.4, containing 5% dimethyl sulfoxide (DMSO). The flow system was primed with the running buffer before the initiation of the experiment. Both PfcFRS and HscFRS were immobilized to Sensor Chip CM5 by standard amine coupling chemistry using N-hydroxysuccinimide (NHS) and ethyl(dimethylaminopropyl) carbodiimide (EDC) to an immobilization level of approximately 1500 RU. The binding experiments were carried out in a single cycle kinetics mode. BRD1389 was serially diluted in running buffer and injected at a flow rate of 60 μl min^−1 across both surfaces for 60 s and dissociations were set up for 120 s. The data analysis was done using Biacore evaluation T200 Evaluation software (GE Healthcare) and after applying the solvent correction, the data was fitted into the 1:1 binding evaluation method to determine the equilibrium dissociation constants (Kd).

Dd2 = assay: Whole parasite growth inhibition (Dd2), quoted in peer review file; type: cell-based; settings: quoted by Reviewer #2 from the submitted manuscript
[3] = 2 h, read-out: % Enzyme Activity

T2 sequence (A5K464 whole entry): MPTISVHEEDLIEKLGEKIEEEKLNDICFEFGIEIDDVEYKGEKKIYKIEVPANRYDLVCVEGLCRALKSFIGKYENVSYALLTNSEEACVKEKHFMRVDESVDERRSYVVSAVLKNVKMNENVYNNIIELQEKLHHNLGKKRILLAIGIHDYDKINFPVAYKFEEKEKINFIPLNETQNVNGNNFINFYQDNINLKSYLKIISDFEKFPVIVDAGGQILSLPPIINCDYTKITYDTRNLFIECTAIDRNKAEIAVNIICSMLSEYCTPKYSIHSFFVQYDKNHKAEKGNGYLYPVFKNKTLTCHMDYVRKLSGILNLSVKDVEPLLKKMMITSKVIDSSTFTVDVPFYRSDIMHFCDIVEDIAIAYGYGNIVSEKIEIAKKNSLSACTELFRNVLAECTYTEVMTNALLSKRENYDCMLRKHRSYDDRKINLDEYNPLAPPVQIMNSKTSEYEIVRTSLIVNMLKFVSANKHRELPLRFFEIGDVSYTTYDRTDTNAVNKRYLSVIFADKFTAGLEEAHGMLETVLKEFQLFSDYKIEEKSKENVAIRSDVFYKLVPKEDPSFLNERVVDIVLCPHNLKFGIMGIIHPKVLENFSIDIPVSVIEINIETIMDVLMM
T2 sequence (A5K9S0 whole entry): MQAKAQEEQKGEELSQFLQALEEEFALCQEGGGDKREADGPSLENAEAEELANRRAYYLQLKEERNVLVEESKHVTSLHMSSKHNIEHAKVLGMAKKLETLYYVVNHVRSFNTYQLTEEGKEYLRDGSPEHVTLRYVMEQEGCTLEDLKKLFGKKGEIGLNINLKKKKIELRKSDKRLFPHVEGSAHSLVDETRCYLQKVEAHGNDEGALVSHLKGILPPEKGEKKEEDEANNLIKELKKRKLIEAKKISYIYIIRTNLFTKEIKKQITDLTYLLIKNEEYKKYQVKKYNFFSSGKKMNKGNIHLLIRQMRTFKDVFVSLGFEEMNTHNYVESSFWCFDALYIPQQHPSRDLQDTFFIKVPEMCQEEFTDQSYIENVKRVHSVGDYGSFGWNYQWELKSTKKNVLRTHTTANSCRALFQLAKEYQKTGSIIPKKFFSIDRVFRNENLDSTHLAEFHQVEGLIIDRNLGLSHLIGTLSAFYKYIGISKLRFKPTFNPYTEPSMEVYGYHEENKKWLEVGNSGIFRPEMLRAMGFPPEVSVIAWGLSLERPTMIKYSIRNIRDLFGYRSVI
T1 sequence (Q9NSD9 whole entry): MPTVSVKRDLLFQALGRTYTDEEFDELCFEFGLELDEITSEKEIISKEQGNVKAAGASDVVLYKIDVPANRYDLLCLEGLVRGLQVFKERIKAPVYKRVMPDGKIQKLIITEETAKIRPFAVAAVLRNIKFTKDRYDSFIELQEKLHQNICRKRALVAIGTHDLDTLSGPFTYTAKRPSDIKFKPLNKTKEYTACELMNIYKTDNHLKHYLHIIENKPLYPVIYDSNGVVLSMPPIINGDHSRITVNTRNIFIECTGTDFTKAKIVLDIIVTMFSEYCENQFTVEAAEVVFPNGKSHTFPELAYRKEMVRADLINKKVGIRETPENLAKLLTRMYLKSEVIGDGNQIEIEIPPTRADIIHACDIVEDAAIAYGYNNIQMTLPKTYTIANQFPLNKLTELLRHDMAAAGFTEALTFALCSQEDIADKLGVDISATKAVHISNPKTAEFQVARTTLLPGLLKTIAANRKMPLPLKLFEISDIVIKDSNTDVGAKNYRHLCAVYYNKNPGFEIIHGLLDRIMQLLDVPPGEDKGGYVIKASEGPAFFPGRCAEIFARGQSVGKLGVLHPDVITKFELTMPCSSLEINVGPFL
T1 sequence (Q9Y285 whole entry): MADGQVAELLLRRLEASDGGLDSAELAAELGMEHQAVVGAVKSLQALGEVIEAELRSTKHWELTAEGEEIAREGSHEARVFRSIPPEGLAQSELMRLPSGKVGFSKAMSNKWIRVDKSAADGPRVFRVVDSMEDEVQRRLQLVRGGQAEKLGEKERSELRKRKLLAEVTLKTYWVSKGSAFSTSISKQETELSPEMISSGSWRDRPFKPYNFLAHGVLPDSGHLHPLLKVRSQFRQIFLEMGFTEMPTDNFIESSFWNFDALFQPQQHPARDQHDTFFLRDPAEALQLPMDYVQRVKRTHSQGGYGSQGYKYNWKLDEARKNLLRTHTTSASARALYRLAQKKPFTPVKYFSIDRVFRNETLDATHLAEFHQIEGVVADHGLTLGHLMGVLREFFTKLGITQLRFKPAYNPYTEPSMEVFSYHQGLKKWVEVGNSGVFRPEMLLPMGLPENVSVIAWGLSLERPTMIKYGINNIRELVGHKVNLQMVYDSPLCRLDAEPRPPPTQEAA

Question: With `COC[C@@H]1[C@H](c2ccc(C#Cc3ccccc3)cc2)[C@@H]2CN(C(=O)Nc3ccc(OC4CC4)cc3)C[C@@H](O)[C@@H](O)CN12` [BRD1389] as the compound, how does the IC50 (HscFRS [1]; Hs cFRS aminoacylation activity) read?
Answer: 12000 nM

Question: What about the remaining activity at 0.0001 µM (HscFRS [1]; HscFRS, BRD1389 0.0001 uM) of the same compound?
Answer: 99.6%

Question: What about the remaining activity at 0.001 µM (HscFRS [1]; HscFRS, BRD1389 0.001 uM) of the same compound?
Answer: 100%

Question: What about the remaining activity at 0.01 µM (HscFRS [1]; HscFRS, BRD1389 0.01 uM) of the same compound?
Answer: 99.7%

Question: What about the remaining activity at 0.1 µM (HscFRS [1]; HscFRS, BRD1389 0.1 uM) of the same compound?
Answer: 90.2%

Question: And the remaining activity at 1 µM (HscFRS [1]; HscFRS, BRD1389 1 uM)?
Answer: 85%

Question: And the remaining activity at 10 µM (HscFRS [1]; HscFRS, BRD1389 10 uM)?
Answer: 49.5%

Question: What about the remaining activity at 100 µM (HscFRS [1]; HscFRS, BRD1389 100 uM) of the same compound?
Answer: 20%

Question: And the remaining activity at 1 pM (PvcFRS; [3])?
Answer: 100%

Question: What about the IC50 (PvcFRS; Pv cFRS aminoacylation activity) of the same compound?
Answer: 25 ± 1 nM

Question: And the remaining activity at 0.0001 µM (PvcFRS; PvcFRS, BRD1389 0.0001 uM)?
Answer: 95.4%

Question: What about the remaining activity at 0.001 µM (PvcFRS; PvcFRS, BRD1389 0.001 uM) of the same compound?
Answer: 86.2%

Question: And the remaining activity at 0.01 µM (PvcFRS; PvcFRS, BRD1389 0.01 uM)?
Answer: 60.7%

Question: And the remaining activity at 0.1 µM (PvcFRS; PvcFRS, BRD1389 0.1 uM)?
Answer: 20.7%

Question: And the remaining activity at 1 µM (PvcFRS; PvcFRS, BRD1389 1 uM)?
Answer: 8.61%

Question: What about the remaining activity at 10 µM (PvcFRS; PvcFRS, BRD1389 10 uM) of the same compound?
Answer: 2.17%

Question: And the remaining activity at 100 µM (PvcFRS; PvcFRS, BRD1389 100 uM)?
Answer: 0%

Question: And the remaining activity at 1 pM (PfcFRS; [3])?
Answer: 100%

Question: What about the remaining activity at 0.0001 µM (PfcFRS; 2 h, PfcFRS, BRD1389 0.0001 uM) of the same compound?
Answer: 98.4%

Question: And the remaining activity at 0.001 µM (PfcFRS; 2 h, PfcFRS, BRD1389 0.001 uM)?
Answer: 85.2%

Question: What about the remaining activity at 0.01 µM (PfcFRS; 2 h, PfcFRS, BRD1389 0.01 uM) of the same compound?
Answer: 46.7%

Question: What about the remaining activity at 0.1 µM (PfcFRS; 2 h, PfcFRS, BRD1389 0.1 uM) of the same compound?
Answer: 9.72%

Question: And the remaining activity at 1 µM (PfcFRS; 2 h, PfcFRS, BRD1389 1 uM)?
Answer: 4.61%

Question: What about the remaining activity at 10 µM (PfcFRS; 2 h, PfcFRS, BRD1389 10 uM) of the same compound?
Answer: 1.17%

Question: And the remaining activity at 100 µM (PfcFRS; 2 h, PfcFRS, BRD1389 100 uM)?
Answer: 0%

Question: What about the IC50 (PfcFRS; Pf cFRS aminoacylation activity) of the same compound?
Answer: 12 ± 0.8 nM

Question: What about the IC50 (PfcFRS mutant (L550V)) of the same compound?
Answer: 1000 nM

Question: What about the remaining activity at 1 pM (PfcFRS mutant (L550V); [3]) of the same compound?
Answer: 100%

Question: And the remaining activity at 0.0001 µM (PfcFRS mutant (L550V); [3])?
Answer: 99.5%

Question: And the remaining activity at 0.001 µM (PfcFRS mutant (L550V); [3])?
Answer: 98%

Question: And the remaining activity at 0.01 µM (PfcFRS mutant (L550V); [3])?
Answer: 95.2%

Question: What about the remaining activity at 0.1 µM (PfcFRS mutant (L550V); [3]) of the same compound?
Answer: 75.4%

Question: And the remaining activity at 1 µM (PfcFRS mutant (L550V); [3])?
Answer: 55.3%

Question: And the remaining activity at 10 µM (PfcFRS mutant (L550V); [3])?
Answer: 18.8%

Question: And the remaining activity at 100 µM (PfcFRS mutant (L550V); [3])?
Answer: 0%

Question: What about the Kd (HscFRS [2]) of the same compound?
Answer: 16000 nM

Question: What about the “Dd2 growth inhibitory activity” value (Dd2) of the same compound?
Answer: < 1 nM
